{"source": "patent US20200405752A1", "about": "“ANTITUMOR AGENT, ANTITUMOR EFFECT ENHANCER, AND ANTITUMOR KIT” (FUJIFILM Corporation, priority 2018, published 2020)", "key": {"[1]": {"system": "human ovarian cancer cell line ES-2", "assay": "Cell viability (CellTiter Glo) of ES-2 in combination with cisplatin or carboplatin", "type": "cell-based", "details": "for CI: ES-2 Cell; for viability at 0.001 µM / viability at 0.003 µM / viability at 0.01 µM / viability at 0.03 µM / viability at 0.1 µM / viability at 0.3 µM / viability at 1 µM / viability at 3 µM / viability at 10 µM / IC50: Homo sapiens, ES-2; for viability at 0.001 µM / viability at 0.003 µM / viability at 0.01 µM / viability at 0.03 µM / viability at 0.1 µM / viability at 0.3 µM / viability at 1 µM / viability at 3 µM / viability at 10 µM: 72 h, 3 days; for viability at 0.001 µM: test substance 1 nM; for viability at 0.003 µM: test substance 3 nM; for viability at 0.01 µM: test substance 10 nM; for viability at 0.03 µM: test substance 30 nM; for viability at 0.1 µM: test substance 100 nM; for viability at 0.3 µM: test substance 300 nM; for viability at 1 µM: test substance 1000 nM; for viability at 3 µM: test substance 3000 nM; for viability at 10 µM: test substance 10000 nM", "excerpt": "(§1) On the combinational effect of the embodiment of the invention, the results of evaluation using a combination index (CI) which is a quantitative index of the combinational effect are shown. The CI can be calculated by the following equation according to Cancer Research, 2010, Vol. 70, pp. 440 to 446.\n(§2) That is, in a case where the drugs to be used in combination are drug 1 and drug 2, the CI at a certain drug concentration is\n(§3) CI={(cell viability in case of using drug 1 and drug 2 in combination)/100}/{[(cell viability in case of using drug 1)/100]×[(cell viability in case of using drug 2)/100]}\n(§4) Evaluation of antitumor activity against human ovarian cancer cell lines ES-2 and SK-OV-3 in combination with cisplatin and carboplatin\n(§5) Furthermore, the antitumor activity against human ovarian cancer-derived cell lines ES-2 and SK-OV-3 in combination with cisplatin and carboplatin was evaluated in the same manner as in Test Example 1.\n(§6) Gemcitabine, cisplatin, carboplatin, and methanesulfonate of Compound A were used as test substances.\n(§7) Gemcitabine hydrochloride (manufactured by Plantex Co., Ltd.) dissolved in DMSO was used as gemcitabine. Cisplatin (Cat. #039-20091, manufactured by Wako Pure Chemical Industries, Ltd.) and carboplatin (Cat. #C2043, manufactured by Tokyo Chemical Industry Co., Ltd.), each of which dissolved in McCoy's 5a medium (Cat. #16600-082, manufactured by Thermo Fisher Scientific Inc.) supplemented with 1% serum (Cat. #10437-028, manufactured by Thermo Fisher Scientific Inc.), were used as cisplatin and carboplatin, respectively.\n(§8) Human ovarian cancer cell line ES-2 and SK-OV-3 cells were subcultured in 10% serum-supplemented medium. During this test, all cell cultures were carried out in a CO2 incubator (set to 37° C. and 5% CO2, saturated with water vapor). ES-2 cells were diluted with 10% serum-supplemented medium to a cell density of 10000 cells/well/100 μL and SK-OV-3 cells were diluted with 10% serum-supplemented medium to a cell density of 15000 cells/well/100 μL, and then seeded on a 96-well plate. On the next day, the culture supernatant of each well was discarded, followed by washing twice with 150 μL of 1% serum-supplemented medium, and 100 μL of 1% serum-supplemented medium was added thereto, followed by culturing for 3 days.\nThe methanesulfonate of Compound A and gemcitabine were dissolved in DMSO to prepare 100 mmol/L DMSO solutions thereof. The thus-prepared DMSO solutions were diluted sequentially with DMSO to prepare DMSO solutions having a final treatment concentration of 1000-fold dilution. Cisplatin and carboplatin were dissolved in 1% serum-supplemented medium to prepare a cisplatin solution 60 μmol/L and a carboplatin solution 600 μmol/L, respectively. The DMSO diluted solutions of Compound A and gemcitabine were diluted with the cisplatin solution (60 μmol/L) or the Carboplatin solution (600 μmol/L) to prepare treatment liquids having a final treatment concentration of 6-fold dilution. Compound A and gemcitabine were used with a maximum concentration of 10 μmol/L at a common ratio of 1/3 and 9 concentrations in combination with cisplatin or Carboplatin.\n(§9) 20 μL of Compound A or gemcitabine diluted with the cisplatin solution (60 μmol/L) or the Carboplatin solution (600 μmol/L) was added to each well. In addition, a group in which only a solvent containing no drug was added to wells in which cells were seeded (positive control), and a group in which only a solvent containing no drug was added to wells containing only a medium (negative control) were provided. All groups were set to n=3 well.\nThe cells were cultured for 3 days after the addition of the drug, and the cell viability was evaluated using a CellTiter Glo (registered trademark) Reagent (Cat. #G7570, manufactured by Promega Corporation) with the intracellular ATP level as an index. […]"}, "[2]": {"system": "human ovarian cancer cell line SK-OV-3", "assay": "Cell viability (CellTiter Glo) of SK-OV-3 in combination with cisplatin or carboplatin", "type": "cell-based", "details": "for viability at 0.001 µM / viability at 0.003 µM / viability at 0.01 µM / viability at 0.03 µM / viability at 0.1 µM / viability at 0.3 µM / viability at 1 µM / viability at 3 µM / viability at 10 µM / IC50: Homo sapiens; for viability at 0.001 µM / viability at 0.003 µM / viability at 0.01 µM / viability at 0.03 µM / viability at 0.1 µM / viability at 0.3 µM / viability at 1 µM / viability at 3 µM / viability at 10 µM: SK-OV-3, 72 h, SK-OV-3, 3 days; for viability at 0.001 µM: test substance 1 nM; for viability at 0.003 µM: test substance 3 nM; for viability at 0.01 µM: test substance 10 nM; for viability at 0.03 µM: test substance 30 nM; for viability at 0.1 µM: test substance 100 nM; for viability at 0.3 µM: test substance 300 nM; for viability at 1 µM: test substance 1000 nM; for viability at 3 µM: test substance 3000 nM; for viability at 10 µM: test substance 10000 nM; for IC50: SK-OV-3, SK-OV-3; for CI: SK-OV-3 Cell", "excerpt": "as §1, §2, §3, §4, §5, §6, §7, §8\nThe methanesulfonate of Compound A and gemcitabine were dissolved in DMSO to prepare 100 mmol/L DMSO solutions thereof. The thus-prepared DMSO solutions were diluted sequentially with DMSO to prepare DMSO solutions having a final treatment concentration of 1000-fold dilution. […] […] Compound A and gemcitabine were used with a maximum concentration of 10 μmol/L at a common ratio of 1/3 and 9 concentrations in combination with cisplatin or Carboplatin.\nas §9\nThe cells were cultured for 3 days after the addition of the drug, and the cell viability was evaluated using a CellTiter Glo (registered trademark) Reagent (Cat. #G7570, manufactured by Promega Corporation) with the intracellular ATP level as an index. The concentration that inhibits cell viability by 50% (IC50 value) was calculated using XLFit software Ver.3 (registered trademark, manufactured by CTC Laboratory Systems Corporation).\nThe cell viability of each well was determined with the luminescence signal level of the negative control being 0% cell viability and the luminescence signal level of the positive control being 100% cell viability. The average value and standard deviation of the cell viability of each treatment group were calculated to prepare Tables 3 to 6."}}, "data": [{"smiles": "Nc1ccn([C@@H]2S[C@H](CO)[C@@H](O)[C@@H]2F)c(=O)n1", "note": "[Compound A, 1-(2-deoxy-2-fluoro-4-thio-β-D-arabinofuranosyl)cytosine]", "values": [{"measurement": "CI", "setting": "[1]; combination with Carboplatin", "result": 0.4}, {"measurement": "CI", "setting": "[1]; combination with Cisplatin", "result": 0.3}, {"measurement": "viability at 0.001 µM", "setting": "[1]; with carboplatin 100 μmol/L", "result": 73, "unit": "%"}, {"measurement": "viability at 0.003 µM", "setting": "[1]; with carboplatin 100 μmol/L", "result": 70, "unit": "%"}, {"measurement": "viability at 0.01 µM", "setting": "[1]; with carboplatin 100 μmol/L", "result": 69, "unit": "%"}, {"measurement": "viability at 0.03 µM", "setting": "[1]; with carboplatin 100 μmol/L", "result": 57, "unit": "%"}, {"measurement": "viability at 0.1 µM", "setting": "[1]; with carboplatin 100 μmol/L", "result": 36, "unit": "%"}, {"measurement": "viability at 0.3 µM", "setting": "[1]; with carboplatin 100 μmol/L", "result": 28, "unit": "%"}, {"measurement": "viability at 1 µM", "setting": "[1]; with carboplatin 100 μmol/L", "result": 24, "unit": "%"}, {"measurement": "viability at 3 µM", "setting": "[1]; with carboplatin 100 μmol/L", "result": 22, "unit": "%"}, {"measurement": "viability at 10 µM", "setting": "[1]; with carboplatin 100 μmol/L", "result": 21, "unit": "%"}, {"measurement": "viability at 0.001 µM", "setting": "[1]; with cisplatin 10 μmol/L", "result": 78, "unit": "%"}, {"measurement": "viability at 0.003 µM", "setting": "[1]; with cisplatin 10 μmol/L", "result": 78, "unit": "%"}, {"measurement": "viability at 0.01 µM", "setting": "[1]; with cisplatin 10 μmol/L", "result": 77, "unit": "%"}, {"measurement": "viability at 0.03 µM", "setting": "[1]; with cisplatin 10 μmol/L", "result": 68, "unit": "%"}, {"measurement": "viability at 0.1 µM", "setting": "[1]; with cisplatin 10 μmol/L", "result": 37, "unit": "%"}, {"measurement": "viability at 0.3 µM", "setting": "[1]; with cisplatin 10 μmol/L", "result": 26, "unit": "%"}, {"measurement": "viability at 1 µM", "setting": "[1]; with cisplatin 10 μmol/L", "result": 23, "unit": "%"}, {"measurement": "viability at 3 µM", "setting": "[1]; with cisplatin 10 μmol/L", "result": 23, "unit": "%"}, {"measurement": "viability at 10 µM", "setting": "[1]; with cisplatin 10 μmol/L", "result": 21, "unit": "%"}, {"measurement": "IC50", "setting": "[1]; used in combination with carboplatin (100 μmol/L, Table 6)", "result": 46, "unit": "nM"}, {"measurement": "IC50", "setting": "[1]; used in combination with cisplatin (10 μmol/L, Table 3)", "result": 63.2, "unit": "nM"}, {"measurement": "viability at 0.001 µM", "setting": "[2]; with carboplatin 30 μmol/L", "result": 90, "unit": "%"}, {"measurement": "viability at 0.003 µM", "setting": "[2]; with carboplatin 30 μmol/L", "result": 88, "unit": "%"}, {"measurement": "viability at 0.01 µM", "setting": "[2]; with carboplatin 30 μmol/L", "result": 84, "unit": "%"}, {"measurement": "viability at 0.03 µM", "setting": "[2]; with carboplatin 30 μmol/L", "result": 82, "unit": "%"}, {"measurement": "viability at 0.1 µM", "setting": "[2]; with carboplatin 30 μmol/L", "result": 80, "unit": "%"}, {"measurement": "viability at 0.3 µM", "setting": "[2]; with carboplatin 30 μmol/L", "result": 73, "unit": "%"}, {"measurement": "viability at 1 µM", "setting": "[2]; with carboplatin 30 μmol/L", "result": 41, "unit": "%"}, {"measurement": "viability at 3 µM", "setting": "[2]; with carboplatin 30 μmol/L", "result": 20, "unit": "%"}, {"measurement": "viability at 10 µM", "setting": "[2]; with carboplatin 30 μmol/L", "result": 17, "unit": "%"}, {"measurement": "viability at 0.001 µM", "setting": "[2]; with cisplatin 10 μmol/L", "result": 83, "unit": "%"}, {"measurement": "viability at 0.003 µM", "setting": "[2]; with cisplatin 10 μmol/L", "result": 82, "unit": "%"}, {"measurement": "viability at 0.01 µM", "setting": "[2]; with cisplatin 10 μmol/L", "result": 81, "unit": "%"}, {"measurement": "viability at 0.03 µM", "setting": "[2]; with cisplatin 10 μmol/L", "result": 76, "unit": "%"}, {"measurement": "viability at 0.1 µM", "setting": "[2]; with cisplatin 10 μmol/L", "result": 43, "unit": "%"}, {"measurement": "viability at 0.3 µM", "setting": "[2]; with cisplatin 10 μmol/L", "result": 14, "unit": "%"}, {"measurement": "viability at 1 µM", "setting": "[2]; with cisplatin 10 μmol/L", "result": 11, "unit": "%"}, {"measurement": "viability at 3 µM", "setting": "[2]; with cisplatin 10 μmol/L", "result": 10, "unit": "%"}, {"measurement": "viability at 10 µM", "setting": "[2]; with cisplatin 10 μmol/L", "result": 10, "unit": "%"}, {"measurement": "IC50", "setting": "[2]; used in combination with carboplatin (30 μmol/L, Table 5)", "result": 676, "unit": "nM"}, {"measurement": "IC50", "setting": "[2]; used in combination with cisplatin (10 μmol/L, Table 4)", "result": 82.2, "unit": "nM"}, {"measurement": "CI", "setting": "[2]; combination with Carboplatin", "result": 0.3}, {"measurement": "CI", "setting": "[2]; combination with Cisplatin", "result": 0.2}]}]}
